Literature values in EP0769503A2, “A heparin complex and medical device having such substance” (priority 1995, dated 1997).

Test system: rat
Details: oral administration to rat

Compound	LD50
CCCCCCCCCCCCCCCCCC[N+](C)(C)Cc1ccccc1.[Cl-] [Stearylbenzyldimethylammonium chloride]	1250 mg/kg
CCCCCCCCCCCC[N+](C)(C)Cc1ccccc1.[Cl-] [Laurylbenzyldimethylammonium chloride]	>500 mg/kg
Benzalkonium dimethylammonium (C8-C18) chloride	445 mg/kg
CCCCCCCCCCCCCCCC[N+](C)(C)C.[Cl-] [Trimethylhexadecylammonium chloride]	250 to 300 mg/kg
CCCCCCCCCCCCCCCCCC[N+](C)(C)C.[Cl-] [Trimethyloctadecylammonium chloride]	1000 mg/kg
CCCCCCCCCCCCCCCCCC[N+](C)(C)CCCCCCCCCCCCCCCCCC.[Cl-] [Distearyldimethylammonium chloride]	11300 mg/kg
